Results taken from ChEMBL document CHEMBL4819048, “IDO1 and TDO inhibitory evaluation of analogues of the marine pyrroloiminoquinone alkaloids: Wakayin and Tsitsikammamines” (Bioorg Med Chem Lett, 2021).

How the values were obtained:
Type in all cases: cell-based
[1] = Cytotoxicity against human HEK293-EBNA cells assessed as cell viability at 25 uM by MTS/PMS assay; settings: read-out: Activity
[2] = Cytotoxicity against human HEK293-EBNA cells assessed as cell viability at 12.5 uM by MTS/PMS assay; settings: read-out: Activity
[3] = Cytotoxicity against human HEK293-EBNA cells assessed as cell viability at 6.25 uM by MTS/PMS assay; settings: read-out: Activity
[4] = Cytotoxicity against human HEK293-EBNA cells assessed as cell viability at 3.12 uM by MTS/PMS assay; settings: read-out: Activity
[5] = target: Indoleamine 2,3-dioxygenase 1 (Homo sapiens) (UniProt P14902); assay: Inhibition of human IDO1 expressed in HEK293-EBNA cells assessed as reduction in kynurenine formation using tryptophan as substrate at 25 uM incubated for 24 hrs by HPLC analysis relative to control
[6] = target: Indoleamine 2,3-dioxygenase 1 (Homo sapiens) (UniProt P14902); assay: Inhibition of human IDO1 expressed in HEK293-EBNA cells assessed as reduction in kynurenine formation using tryptophan as substrate at 12.5 uM incubated for 24 hrs by HPLC analysis relative to control
[7] = target: Indoleamine 2,3-dioxygenase 1 (Homo sapiens) (UniProt P14902); assay: Inhibition of human IDO1 expressed in HEK293-EBNA cells assessed as reduction in kynurenine formation using tryptophan as substrate at 6.25 uM incubated for 24 hrs by HPLC analysis relative to control
[8] = target: Indoleamine 2,3-dioxygenase 1 (Homo sapiens) (UniProt P14902); assay: Inhibition of human IDO1 expressed in HEK293-EBNA assessed as reduction in kynurenine formation using tryptophan as substrate at 3.12 uM incubated for 24 hrs by HPLC analysis relative to control
[9] = target: Tryptophan 2,3-dioxygenase (Homo sapiens) (UniProt P48775); assay: Inhibition of human TDO expressed in HEK293-EBNA cells assessed as reduction in kynurenine formation using tryptophan as substrate at 25 uM incubated for 24 hrs by HPLC analysis relative to control
[10] = target: Tryptophan 2,3-dioxygenase (Homo sapiens) (UniProt P48775); assay: Inhibition of human TDO expressed in HEK293-EBNA cells assessed as reduction in kynurenine formation using tryptophan as substrate at 12.5 uM incubated for 24 hrs by HPLC analysis relative to control
[11] = target: Tryptophan 2,3-dioxygenase (Homo sapiens) (UniProt P48775); assay: Inhibition of human TDO expressed in HEK293-EBNA cells assessed as reduction in kynurenine formation using tryptophan as substrate at 6.25 uM incubated for 24 hrs by HPLC analysis relative to control
[12] = target: Tryptophan 2,3-dioxygenase (Homo sapiens) (UniProt P48775); assay: Inhibition of human TDO expressed in HEK293-EBNA cells assessed as reduction in kynurenine formation using tryptophan as substrate at 3.12 uM incubated for 24 hrs by HPLC analysis relative to control

Chain of Indoleamine 2,3-dioxygenase 1 (Homo sapiens) (P14902 whole entry, looked up): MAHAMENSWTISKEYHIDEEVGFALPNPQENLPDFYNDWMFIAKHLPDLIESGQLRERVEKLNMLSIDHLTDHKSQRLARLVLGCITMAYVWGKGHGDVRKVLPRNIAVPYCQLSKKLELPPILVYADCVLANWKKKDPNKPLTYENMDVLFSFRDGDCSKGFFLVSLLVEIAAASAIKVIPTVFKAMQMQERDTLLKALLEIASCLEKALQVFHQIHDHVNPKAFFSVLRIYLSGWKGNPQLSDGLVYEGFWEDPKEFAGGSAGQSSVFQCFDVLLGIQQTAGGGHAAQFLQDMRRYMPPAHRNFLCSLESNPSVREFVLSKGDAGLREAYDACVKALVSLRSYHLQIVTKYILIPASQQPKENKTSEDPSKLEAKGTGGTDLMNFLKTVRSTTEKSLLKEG
Chain of Tryptophan 2,3-dioxygenase (Homo sapiens) (P48775 whole entry, looked up): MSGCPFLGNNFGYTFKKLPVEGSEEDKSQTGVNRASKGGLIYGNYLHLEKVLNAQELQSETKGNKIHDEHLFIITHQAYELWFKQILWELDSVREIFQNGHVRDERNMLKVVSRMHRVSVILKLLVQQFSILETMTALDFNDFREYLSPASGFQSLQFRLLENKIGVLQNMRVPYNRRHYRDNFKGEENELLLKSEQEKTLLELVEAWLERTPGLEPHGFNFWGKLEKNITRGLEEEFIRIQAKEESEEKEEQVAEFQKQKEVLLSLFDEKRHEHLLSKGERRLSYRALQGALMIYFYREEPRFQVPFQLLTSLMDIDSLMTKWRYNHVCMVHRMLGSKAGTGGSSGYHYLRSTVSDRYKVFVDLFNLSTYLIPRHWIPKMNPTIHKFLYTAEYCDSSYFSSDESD

| Compound | inhibition [5] | inhibition [6] | inhibition [7] | inhibition [8] | inhibition [9] | inhibition [10] | inhibition [11] | inhibition [12] | viability at 25 µM [1] | viability at 12.5 µM [2] | viability at 6.25 µM [3] | viability at 3.12 µM [4] |
| --- | --- | --- | --- | --- | --- | --- | --- | --- | --- | --- | --- | --- |
| Cc1ccc(S(=O)(=O)n2ccc3c2C(=O)c2c4c(cn2S(=O)(=O)c2ccc(C)cc2)CCN=C34)cc1 |  |  |  |  |  |  |  |  | 67% | 85% | 88% | 87% |
| O=C1c2[nH]cc3c2C(=NCC3)c2c(-c3ccccc3)n[nH]c21 | 5% | 5% | 4% | 4% | 5% | 6% | 5% | 3% | 84% | 94% | 93% | 93% |
| Cc1ccc(S(=O)(=O)n2cc3c4c2C(=O)c2c(cnn2C)C4=NCC3)cc1 | 36% | 23% | 16% | 11% | 35% | 21% | 18% | 3% | 78% | 77% | 89% | 93% |
| Cc1ccc(S(=O)(=O)n2cc3c4c2C(=O)c2[nH]nc(N5C(=O)C(O)c6ccccc65)c2C4=NCC3)cc1 (centres undefined) | 14% | 1% | 3% | 1% | 27% | 6% | 5% | -7% | 31% | 84% | 107% | 104% |
| Cc1ccc(S(=O)(=O)n2cc3c4c2C(=O)c2n[nH]cc2C4=NCC3)cc1 | 6% | 9% | 9% | 10% | 7% | 13% | 14% | 12% | 91% | 97% | 91% | 92% |
| O=C1c2c[nH]nc2C2=NCCc3c[nH]c1c32 | -1% | 0% | 2% | 2% | 9% | 8% | 8% | 6% | 90% | 91% | 92% | 93% |
| Cc1ccc(S(=O)(=O)n2cc3c4c2C(=O)c2cn[nH]c2C4=NCC3)cc1 | 11% | 15% | 12% | 10% | 15% | 23% | 19% | 15% | 93% | 110% | 106% | 87% |

Second part, led by results:

| inhibition [5] | inhibition [6] | inhibition [7] | inhibition [8] | inhibition [9] | inhibition [10] | inhibition [11] | inhibition [12] | Compound | viability at 25 µM [1] | viability at 12.5 µM [2] | viability at 6.25 µM [3] | viability at 3.12 µM [4] |
| --- | --- | --- | --- | --- | --- | --- | --- | --- | --- | --- | --- | --- |
| 18% | 16% | 12% | 10% | -10% | 2% | 5% | 5% | Cc1ccc(S(=O)(=O)n2cc3c4c2C(=O)c2[nH]nc(-c5ccccc5)c2C4=NCC3)cc1 | 78% | 79% | 95% | 91% |
| 28% | 26% | 20% | 12% | -8% | -1% | 2% | 2% | Cc1ccc(S(=O)(=O)n2ccc3c2C(=O)c2c(-c4c[nH]c5ccccc45)cn(C)c2C3=O)cc1 | 95% | 97% | 98% | 100% |
| 11% | 13% | 9% | 2% | 0% | 0% | -3% | -8% | Cc1ccc(S(=O)(=O)n2ccc3c2C(=O)C(NCCc2c[nH]c4ccccc24)=CC3=O)cc1 | 84% | 99% | 98% | 98% |
| 24% | 25% | 22% | 16% | -9% | -2% | 1% | -1% | Cc1ccc(S(=O)(=O)n2ccc3c2C(=O)c2[nH]c(C(=O)c4c[nH]c5ccccc45)c(C(=O)c4c[nH]c5ccccc45)c2C3=O)cc1 | 75% | 82% | 81% | 87% |
| 23% | 22% | 19% | 14% | 21% | 18% | 13% | 10% | Cc1ccc(S(=O)(=O)n2cc3c4c2C(=O)c2c(-c5ccccc5)n[nH]c2C4=NCC3)cc1 | 96% | 123% | 126% | 91% |
| 39% | 38% | 28% | 23% | 67% | 31% | 12% | 5% | Cc1ccc(S(=O)(=O)n2ccc3c2C(=O)C=C(NCCc2c[nH]c4ccccc24)C3=O)cc1 | 26% | 56% | 69% | 75% |
| -3% | -4% | -3% | 0% | 3% | -6% | -7% | -7% | Cc1ccc(S(=O)(=O)n2ccc3c2C(=O)c2[nH]cc4c2C3=NCC4)cc1 | 115% | 110% | 98% | 107% |
| 61% | 62% | 58% | 52% | 28% | 55% | 27% | 15% | Cc1ccc(S(=O)(=O)n2ccc3c2C(=O)c2[nH]c(C(=O)c4ccccc4)c(C(=O)c4ccccc4)c2C3=O)cc1 | 111% | 102% | 125% | 99% |
| 27% | 21% | 12% | 8% | -3% | 0% | 3% | 2% | Cc1ccc(S(=O)(=O)n2ccc3c2C(=O)c2c(c(-c4c[nH]c5ccccc45)cn2C)C3=O)cc1 | 88% | 96% | 96% | 98% |
